Laboratory results taken from PubChem BioAssay (NCI).
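Following 48 hours of exposure in 96-well plates, responses at five concentrations were used to interpolate endpoints linearly. GI50 = concentration required for 50% inhibition of growth. Definition used: TGI = concentration required for complete inhibition of growth.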 Activity calls are given as the source filed them. Rule as the data show it: active = GI50 below about 0.43 µM; inactive = the rest.

Columns and labels:
Experiment in all cases: growth of human tumour cells (NCI), 48 h
A498 renal = tested on: A498 renal
DLD-1 colon = tested on: DLD-1 colon
M19-MEL melanoma = tested on: M19-MEL melanoma
OVCAR-4 ovarian = tested on: OVCAR-4 ovarian
M14 melanoma = tested on: M14 melanoma
HCT-15 colon = tested on: HCT-15 colon
SK-MEL-28 melanoma = tested on: SK-MEL-28 melanoma
XF 498 CNS = tested on: XF 498 CNS
SF-539 CNS = tested on: SF-539 CNS
RXF-631 renal = tested on: RXF-631 renal
SN12C renal = tested on: SN12C renal
SK-MEL-2 melanoma = tested on: SK-MEL-2 melanoma
NCI-H23 lung = tested on: NCI-H23 lung
HL-60(TB) leukemia = tested on: HL-60(TB) leukemia
T-47D breast = tested on: T-47D breast
SNB-75 CNS = tested on: SNB-75 CNS
SF-295 CNS = tested on: SF-295 CNS
786-0 renal = tested on: 786-0 renal

`C[CH2][Sn]([CH2]C)([O]C(=O)c1ccccc1F)[O]C(=O)c1ccccc1F` was tested, and the GI50 (A498 renal) was 18.5 µM, the TGI (A498 renal) was 35.5 µM and the GI50 (DLD-1 colon) was 29.8 µM. It also gave a TGI (DLD-1 colon) greater than 91.3 µM, a GI50 (M19-MEL melanoma) of 29.8 µM and a TGI (M19-MEL melanoma) greater than 77.2 µM. The GI50 (OVCAR-4 ovarian) was greater than 100 µM, the TGI (OVCAR-4 ovarian) was greater than 100 µM and the GI50 (M14 melanoma) was 30.4 µM. It also gave a TGI (M14 melanoma) of 56.8 µM, a GI50 (HCT-15 colon) of 29 µM and a TGI (HCT-15 colon) greater than 67.7 µM. It also gave a GI50 (SK-MEL-28 melanoma) of 29.1 µM, a TGI (SK-MEL-28 melanoma) of 47.6 µM and a GI50 (XF 498 CNS) of 15.9 µM. It also gave a TGI (XF 498 CNS) of 30.6 µM, a GI50 (SF-539 CNS) of 23.2 µM and a TGI (SF-539 CNS) of 29.4 µM. For the same compound, the GI50 (RXF-631 renal) was 18.6 µM, the TGI (RXF-631 renal) was 34.1 µM and the GI50 (SN12C renal) was greater than 75 µM. For the same compound, the TGI (SN12C renal) was greater than 100 µM, the GI50 (SK-MEL-2 melanoma) was 15.8 µM and the TGI (SK-MEL-2 melanoma) was 28.1 µM. It also gave a GI50 (NCI-H23 lung) of 22.6 µM, a TGI (NCI-H23 lung) of 45 µM and a GI50 (HL-60(TB) leukemia) greater than 45.2 µM. The TGI (HL-60(TB) leukemia) was greater than 100 µM, the GI50 (T-47D breast) was 11.8 µM and the TGI (T-47D breast) was 24.4 µM. The GI50 (SNB-75 CNS) was 21.7 µM, the TGI (SNB-75 CNS) was greater than 53.4 µM and the GI50 (SF-295 CNS) was greater than 62 µM. The TGI (SF-295 CNS) was greater than 84.6 µM, the GI50 (786-0 renal) was 33.3 µM and the TGI (786-0 renal) was greater than 69.3 µM.
For `C=CC(=O)C#CC#CC/C=C\CCCCCCC`, the TGI (A498 renal) was greater than 20.6 µM, the outcome (A498 renal) was “inactive” and the TGI (DLD-1 colon) was greater than 20.6 µM. For the same compound, the TGI (M19-MEL melanoma) was greater than 20.6 µM, the TGI (OVCAR-4 ovarian) was greater than 20.6 µM and the outcome (OVCAR-4 ovarian) was “inactive”. For the same compound, the TGI (M14 melanoma) was greater than 20.6 µM, the outcome (M14 melanoma) was “inactive” and the TGI (HCT-15 colon) was greater than 20.6 µM. For the same compound, the outcome (HCT-15 colon) was “inactive”, the TGI (SK-MEL-28 melanoma) was greater than 20.6 µM and the outcome (SK-MEL-28 melanoma) was “inactive”. The TGI (SF-539 CNS) was greater than 20.6 µM, the outcome (SF-539 CNS) was “inactive” and the TGI (SN12C renal) was greater than 20.6 µM. The outcome (SN12C renal) was “inactive”, the TGI (SK-MEL-2 melanoma) was greater than 20.6 µM and the outcome (SK-MEL-2 melanoma) was “inactive”. For the same compound, the TGI (NCI-H23 lung) was greater than 20.6 µM, the outcome (NCI-H23 lung) was “inactive” and the TGI (HL-60(TB) leukemia) was greater than 20.6 µM. For the same compound, the outcome (HL-60(TB) leukemia) was “inactive”, the TGI (T-47D breast) was greater than 20.6 µM and the outcome (T-47D breast) was “inactive”. For the same compound, the TGI (SNB-75 CNS) was greater than 20.6 µM, the outcome (SNB-75 CNS) was “inactive” and the TGI (SF-295 CNS) was greater than 20.6 µM. The outcome (SF-295 CNS) was “inactive”, the TGI (786-0 renal) was greater than 18.4 µM and the outcome (786-0 renal) was “inactive”.
